The values that follow come from US20220241413A1, “COMBINATION THERAPIES USING CD-38 ANTIBODIES” (Takeda Pharmaceutical Company Limited, priority 2019, published 2022).

Data set [1] is described as follows: AB79-2001 phase 1b study in SLE: safety. Format: in vivo, human. The note with it: 15 patients, data still blinded (AB79 or placebo). The text has this:
AB79-2001 is a double-blind, placebo-controlled phase 1b study in patients with moderate to severe SLE. As of the clinical data cutoff, a total of 15 patients had received at least 1 dose of AB79 or placebo. Data is still blinded for this study. No new safety concerns have been identified.

Data set [2] can be described thus: Phase 1 study in healthy subjects (AB79-101): pharmacokinetics. It counts as in vivo, human. The note with it: single 0.06 mg/kg IV dose. As to the method:
(§1) In a phase 1 study in healthy subjects (Study AB79-101), AB79 reduced the levels of peripheral blood and natural killer (NK) cells >90% from baseline in all subjects receiving a single 0.06 mg/kg IV dose of AB79, with a maximum observed concentration (Cmax) of 0.1 μg/mL. (U.S. Pat. No. 8,362,211; U.S. International Patent Application Serial Nos. PCT/US2019/013547 and PCT/US2019/024431). […] Potent reduction of plasmablasts was observed across cohorts of patients in the RRMM trial (Study AB79-1501). […] Consequently, AB79 may be more efficient at eliminating cells expressing high levels of CD38, which could manifest as higher activity on tumor cells (e.g., improved and deeper response rates across a population of patients with myeloma).
(§2) AB79 IV reduced the levels of peripheral blood NK cells >90% from baseline levels in all subjects receiving a single 0.06 mg/kg IV dose, with a Cmax of 0.1 μg/mL. […] As a potent and convenient second-generation anti-CD38 mAb, AB79 SC warranted therapeutic development for the treatment of multiple myeloma (MM).

The test system of data set [3] is plasmablasts in peripheral blood. Description: Phase 1 study in healthy subjects (AB79-101): plasmablast levels. It counts as in vivo, human. The following applies: SC. As for the experimental part:
as §1, §2

Data set [4] has as its system relapsed and refractory multiple myeloma (RRMM). Description: AB79-1501 study, AB79 monotherapy SC in RRMM: disease response. Format: in vivo, human. The following applies: at the RP2D, anti-CD38 naïve patients who received at least cycle 1. The text has this: The AB79-1501 study is a Phase 1b/2a multicenter, open-label, dose-escalation, single-arm study in patients with relapsed and refractory multiple myeloma (RRMM), who were previously treated with at least a proteasome inhibitor (PI), an immunomodulatory drug (IMiD), an alkylating agent, and a steroid. Patients eligible for study enrollment are refractory or intolerant to at least one PI and at least one IMiD, and have received either ≥3 prior therapies or ≥2 prior therapies, if one of those therapies included a combination of a PI and an IMiD. In the phase 1b dose-escalation part of the study, patients who were previously exposed to an anti-CD38 agent are eligible; however, this criterion is not required. In the phase 2a expansion part of the study, patients were also refractory to at least one anti-CD38 monoclonal therapy at any time during prior treatment. The study was designed to evaluate the safety and tolerability of subcutaneously administered AB79 monotherapy in patients with RRMM, to determine the recommended phase 2 dose (RP2D), and to provide a preliminary assessment of its single-agent activity against RRMM, including in patients who are refractory to daratumumab. Parameters such as safety, tolerability, pharmacokinetics (PK), pharmacodynamics, and disease response were assessed.
As of the data cutoff, nineteen (19) patients were treated in the dose-escalation portion of the ongoing study in patients with RRMM and have completed at least 1 cycle: 4 patients in the first cohort (45 mg); 3 patients in the second cohort (135 mg); 6 patients in the third cohort (300 mg); and 6 patients in the fourth cohort (600 mg). The most common TEAEs (in ≥10% of patients) regardless of causality in the total population as of this date are fatigue and upper respiratory infection (27% each), insomnia (22%), diarrhea and nausea (17% each), headache and anemia (15% each), neutropenia, abdominal distension, back pain, and hypertension (12% each), cough and pneumonia (10% each). […] The RP2D was determined to be 600 mg with AB79 monotherapy. […]

The subject of data set [5] is peripheral blood NK cells. Description: Phase 1 study in healthy subjects (AB79-101): NK cell levels. The note with it: all subjects receiving a single 0.06 mg/kg IV dose. It counts as in vivo, human. As to the method: as §1, §2
Data set [6] concerns the target cynomolgus CD38 (Macaca fascicularis, UniProt Q5VAN0). Description: Binding to cynomolgus CD38. The source says:
(§3) Other Morphosys antibodies targeting CD38 are known (see, e.g., WO 2006/125640, which discloses four human antibodies: MOR03077, MOR03079, MOR03080, and MOR03100 and two murine antibodies: OKT10 and IB4). […] Moreover, the prior art antibodies have poor ADCC as well as CDC activity.

Data set [7] addresses human CD38 (Homo sapiens, UniProt P28907). Description: Biacore affinity to human CD38. Format: binding.
Source text: as §3
On the technique in general: SPR reads the build-up and loss of mass on a sensor chip optically.

Sequence of cynomolgus CD38 (Q5VAN0 whole entry): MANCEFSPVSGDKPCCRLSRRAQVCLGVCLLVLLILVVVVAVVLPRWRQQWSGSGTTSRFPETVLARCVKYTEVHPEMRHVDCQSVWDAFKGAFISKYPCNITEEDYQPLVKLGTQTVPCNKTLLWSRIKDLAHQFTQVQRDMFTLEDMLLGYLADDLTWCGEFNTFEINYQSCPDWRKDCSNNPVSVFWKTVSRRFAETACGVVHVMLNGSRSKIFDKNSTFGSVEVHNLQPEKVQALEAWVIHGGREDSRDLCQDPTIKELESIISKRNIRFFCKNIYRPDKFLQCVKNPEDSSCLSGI

What is called Kd is a measure of binding affinity in units of concentration. Lower therefore signals tighter binding. With “AB79: anti-CD38 monoclonal IgG1 antibody; heavy chain SEQ ID NO:11, light chain SEQ ID NO:12”, the “patients with a Grade 3 or higher TEAE or AEs leading to study drug discontinuation” value in data set [1] is “No patient”. Moreover, the “maximum observed concentration (Cmax)” value in data set [2] turned out to be 100 ng/mL. Moreover, the “reduction of levels of circulating plasmablasts in peripheral blood” value in data set [3] is reported as “dose-dependent manner”. In data set [4], the “clinical benefit rate (minor response or better)” value amounted to 73%, the “disease control rate (stable disease or better)” value turned out to be 91% and the “preliminary objective response rate (ORR)” value came out at 36%. Also, the “reduction of levels of peripheral blood NK cells from baseline” value in data set [5] is given as > 90%. Also, in data set [6], the “binding to cynomolgus CD38” value is “binds”. Also, the affinity in data set [7], expressed as Kd, was 5.4 nM.
